Earlier results, collected in US12637441B2, “Prodrugs of the tyrosine kinase inhibitor for treating cancer” (RISEN (SUZHOU) PHARMA TECH CO., LTD., priority 2019, dated 2026).

Structure (SMILES): CNC(=O)c1ccccc1Sc1ccc2c(/C=C/c3ccccn3)n[nH]c2c1 [axitinib, N-methyl-2-((3-((1E)-2-(2-pyridinyl)ethenyl)-1H-indazol-6-yl)thio)benzamide]
- patients in whom the most common side effects occur: more than 20%
